Values of other authors in patent US20020137728A1, “Topical oral care compositions” (Oraceutical LLC, priority 2001, published 2002).

Tests used:
[1] = system: serum alkaline phosphatase enzyme; conditions: single dose intraperitoneally, Wistar rats with artificially induced periodontal lesions
[2] = peroxide tooth whitening composition on tooth surface

Compound | serum alkaline phosphatase enzyme [1] | time to reach vital pulp tissue from initial contact on the tooth surface [2]
O=C1O[C@H]([C@@H](O)CO)C(O)=C1O [ascorbic acid] | increase | 
OO [hydrogen peroxide] |  | ≤ 15 min
